From PubChem BioAssay AID330 (DTP/NCI, 2004)
“And” between values parts separate entries of the source, which are not always exact repeats. Equal entries are not always repeated. Toxic doses and inconclusive results are not listed. The calls were made as follows: active = survival T/C of 150% or more; inactive = T/C below 125% in these data.

Test system: P388 leukemia ip, CD2F1 mice, survival T/C
Test: NCI In Vivo Anticancer Drug Screen. Data for tumor model P388 Leukemia (intraperitoneal) in CD2F1 (CDF1) mice
Conditions: endpoint: median survival time, higher = longer survival
Method in brief: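 Mice carrying the transplanted tumor received test compound or vehicle. Survival was recorded in each group, and the value is the treated-group measurement divided by that of the vehicle-treated control group.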

[1] = dose: 50.0 mg/kg/injection, schedule: Q01DX005 (ip), vehicle: saline with Tween-80
[2] = dose: 12.5 mg/kg/injection, schedule: Q01DX009 (ip), vehicle: saline with Tween-80
[3] = dose: 25.0 mg/kg/injection, schedule: Q01DX009 (ip), vehicle: saline with Tween-80
[4] = dose: 100.0 mg/kg/injection, schedule: Q01DX009 (ip), vehicle: saline with Tween-80
[5] = dose: 50.0 mg/kg/injection, schedule: Q01DX009 (ip), vehicle: saline with Tween-80

Measured: T/C

Nc1cc(C(=O)O)cc(Cl)n1
inactive: dose: 3.12 mg/kg/injection, schedule: Q01DX009 (ip), vehicle: saline 108 % of control | dose: 6.25 mg/kg/injection, schedule: Q01DX009 (ip), vehicle: saline 101 % of control | dose: 12.5 mg/kg/injection, schedule: Q01DX009 (ip), vehicle: saline 107 % of control | dose: 25.0 mg/kg/injection, schedule: Q01DX009 (ip), vehicle: saline 111 % of control

C=C1CC2(CCCC(=O)C2)OC1=O (stereo not drawn)
inactive: dose: 12.5 mg/kg/injection, schedule: Q01DX005 (ip), vehicle: Klucel (hydroxypropylcellulose) (HPC) 97 % of control | dose: 25.0 mg/kg/injection, schedule: Q01DX005 (ip), vehicle: Klucel (hydroxypropylcellulose) (HPC) 101 % of control | dose: 50.0 mg/kg/injection, schedule: Q01DX005 (ip), vehicle: Klucel (hydroxypropylcellulose) (HPC) 99 % of control and 101 % of control

O=[N+]([O-])c1ccc(-c2csc(Nc3ccccn3)n2)o1
inactive: dose: 12.5 mg/kg/injection, schedule: Q01DX005 (ip), vehicle: saline with Tween-80 95 % of control | dose: 25.0 mg/kg/injection, schedule: Q01DX005 (ip), vehicle: saline with Tween-80 99 % of control | [1] 88 % of control and 92 % of control

CCn1c2ccccc2c2cc(N=Nc3ccnc4c(O)cccc34)ccc21
inactive: [2] 119 % of control | [3] 117 % of control | [4] 108 % of control and 97 % of control

COC(=O)C1=C(C(=O)OC)C23C(=O)c4ccc(OC)c(OC)c4C1N2CCc1cc2c(cc13)OCO2 (stereo not drawn)
inactive: dose: 50.0 mg/kg/injection, schedule: Q04DX002 (ip), vehicle: saline with Tween-80 94 % of control | dose: 100.0 mg/kg/injection, schedule: Q04DX002 (ip), vehicle: saline with Tween-80 102 % of control | dose: 200.0 mg/kg/injection, schedule: Q04DX002 (ip), vehicle: saline with Tween-80 100 % of control

CNc1ccccc1C(=O)N/N=C/C=C/c1ccccc1
inactive: [2] 102 % of control | [3] 105 % of control | [5] 104 % of control | [4] 118 % of control

S=c1o[nH]c(-c2ccccc2)c1C=Nc1ccccc1
inactive: dose: 60.0 mg/kg/injection, schedule: Q01DX005 (ip), vehicle: saline with Tween-80 102 % of control | dose: 120.0 mg/kg/injection, schedule: Q01DX005 (ip), vehicle: saline with Tween-80 93 % of control | dose: 240.0 mg/kg/injection, schedule: Q01DX005 (ip), vehicle: saline with Tween-80 94 % of control

OC1CCC(C2C3CCCCC3C3CCCCC3C2C2CCC(O)CC2)CC1 (stereo not drawn)
inactive: [1] 99 % of control | dose: 100.0 mg/kg/injection, schedule: Q01DX005 (ip), vehicle: saline with Tween-80 99 % of control

CC1(c2ccccc2)Nc2ccccc2N(C(=O)c2ccccc2)C1c1ccccc1 (stereo not drawn)
inactive: dose: 60.0 mg/kg/injection, schedule: Q01DX005 (ip), vehicle: Klucel (hydroxypropylcellulose) (HPC) 91 % of control | dose: 120.0 mg/kg/injection, schedule: Q01DX005 (ip), vehicle: Klucel (hydroxypropylcellulose) (HPC) 90 % of control

O=C(Nc1cccc2c1C(=O)c1cccc(NC(=O)c3ccc(C(=O)Nc4cccc5c4C(=O)c4cccc(NC(=O)c6ccccc6)c4C5=O)cc3)c1C2=O)c1ccccc1
inactive: [5] 100 % of control | [4] 94 % of control | dose: 200.0 mg/kg/injection, schedule: Q01DX009 (ip), vehicle: saline with Tween-80 93 % of control

COc1ccc2c(c1OC)C1=C(C2=O)c2cc3c(cc2CCN1)OCO3
inactive: dose: 50.0 mg/kg/injection, schedule: Q01DX005 (ip), vehicle: saline + Tween-80 + alcohol 102 % of control | dose: 100.0 mg/kg/injection, schedule: Q01DX005 (ip), vehicle: saline + Tween-80 + alcohol 100 % of control | dose: 200.0 mg/kg/injection, schedule: Q01DX005 (ip), vehicle: saline + Tween-80 + alcohol 102 % of control
